What was measured:
Experiment in all cases: radiometric filter-binding kinase assay, Kinase HotSpot
Settings in all cases: compound 0.5 µM; ATP 10 µM
[1] = molecular target: SRPK2 (human) (UniProt P78362)
[2] = molecular target: PIM2 (human) (UniProt Q9P1W9)
[3] = molecular target: CAMK1 (human) (UniProt Q14012)
[4] = molecular target: DYRK1A (human) (UniProt Q13627)
[5] = molecular target: CDK9 CCNK (human) (UniProt O75909+P50750)
[6] = molecular target: PTK2 (human) (UniProt Q05397)
[7] = molecular target: TAOK3 (human) (UniProt Q9H2K8)
[8] = molecular target: CDK7 CCNH MNAT1 (human) (UniProt P50613+P51948+P51946)
[9] = molecular target: ADRBK2 (human) (UniProt P35626)
[10] = molecular target: NLK (human) (UniProt Q9UBE8)
[11] = molecular target: ADRBK1 (human) (UniProt P25098)
[12] = molecular target: DYRK4 (human) (UniProt Q9NR20)
[13] = molecular target: FGR (human) (UniProt P09769)
[14] = molecular target: NEK3 (human) (UniProt P51956)
[15] = molecular target: MINK1 (human) (UniProt Q8N4C8)
[16] = molecular target: NEK7 (human) (UniProt Q8TDX7)
[17] = molecular target: IRAK4 (human) (UniProt Q9NWZ3)
[18] = molecular target: FER (human) (UniProt P16591)
[19] = molecular target: CAMK1G (human) (UniProt Q96NX5)
[20] = molecular target: FGFR1 (human) (UniProt P11362)
[21] = molecular target: MYLK (human) (UniProt Q15746)
[22] = molecular target: CHUK (human) (UniProt O15111)
[23] = molecular target: PAK7 (human) (UniProt Q9P286)
[24] = molecular target: STK24 (human) (UniProt Q9Y6E0)
[25] = molecular target: ERBB2 (human) (UniProt P04626)
[26] = molecular target: EPHA2 (human) (UniProt P29317)
[27] = molecular target: DSTYK (human) (UniProt Q6XUX3)
[28] = molecular target: PTK2B (human) (UniProt Q14289)
[29] = molecular target: DAPK3 (human) (UniProt O43293)
[30] = molecular target: DYRK2 (human) (UniProt Q92630)
[31] = molecular target: IRAK1 (human) (UniProt P51617)
[32] = molecular target: MAPK8 (human) (UniProt P45983)
[33] = molecular target: BLK (human) (UniProt P51451)
[34] = molecular target: AKT3 (human) (UniProt Q9Y243)
[35] = molecular target: SRPK1 (human) (UniProt Q96SB4)
[36] = molecular target: MAPK12 (human) (UniProt P53778)
[37] = molecular target: MST4 (human) (UniProt Q9P289)
[38] = molecular target: CDK6 CCND1 (human) (UniProt Q00534+P24385)
[39] = molecular target: JAK1 JH1 catalytic (human) (UniProt P23458)
[40] = molecular target: CSF1R (human) (UniProt P07333)
[41] = molecular target: STK33 (human) (UniProt Q9BYT3)
[42] = molecular target: MAPK14 (human) (UniProt Q16539)

Chain of JAK1 JH1 catalytic (human) (P23458 whole entry, looked up): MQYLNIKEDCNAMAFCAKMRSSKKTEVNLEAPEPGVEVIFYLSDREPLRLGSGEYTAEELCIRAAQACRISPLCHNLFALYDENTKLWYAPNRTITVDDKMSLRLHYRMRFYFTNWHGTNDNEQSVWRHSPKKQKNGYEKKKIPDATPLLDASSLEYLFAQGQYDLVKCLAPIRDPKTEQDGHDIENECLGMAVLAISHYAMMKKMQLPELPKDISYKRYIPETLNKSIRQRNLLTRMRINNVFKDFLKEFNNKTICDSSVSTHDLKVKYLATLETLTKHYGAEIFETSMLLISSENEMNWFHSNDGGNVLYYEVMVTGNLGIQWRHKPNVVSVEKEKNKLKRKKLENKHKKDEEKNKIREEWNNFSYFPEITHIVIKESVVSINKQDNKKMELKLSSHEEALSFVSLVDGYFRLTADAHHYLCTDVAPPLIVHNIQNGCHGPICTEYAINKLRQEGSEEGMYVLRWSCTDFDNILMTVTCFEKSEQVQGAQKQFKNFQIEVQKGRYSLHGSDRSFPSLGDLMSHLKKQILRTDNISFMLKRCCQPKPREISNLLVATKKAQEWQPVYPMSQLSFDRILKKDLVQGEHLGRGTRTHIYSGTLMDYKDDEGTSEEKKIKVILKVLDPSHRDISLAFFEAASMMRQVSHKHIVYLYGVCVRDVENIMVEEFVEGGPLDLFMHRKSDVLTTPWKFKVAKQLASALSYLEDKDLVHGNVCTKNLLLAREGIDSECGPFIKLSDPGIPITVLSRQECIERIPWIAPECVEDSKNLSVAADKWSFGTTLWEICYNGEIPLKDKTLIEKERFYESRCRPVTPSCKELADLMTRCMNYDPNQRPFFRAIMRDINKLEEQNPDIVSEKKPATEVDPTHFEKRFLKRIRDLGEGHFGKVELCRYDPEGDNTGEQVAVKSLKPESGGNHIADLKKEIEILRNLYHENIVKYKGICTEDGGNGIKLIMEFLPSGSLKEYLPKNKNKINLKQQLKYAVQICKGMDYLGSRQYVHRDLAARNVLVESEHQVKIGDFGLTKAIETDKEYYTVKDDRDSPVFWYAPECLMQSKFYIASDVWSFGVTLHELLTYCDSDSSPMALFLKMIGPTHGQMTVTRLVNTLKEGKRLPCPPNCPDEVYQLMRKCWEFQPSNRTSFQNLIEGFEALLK
Chain of FER (human) (P16591 whole entry, looked up): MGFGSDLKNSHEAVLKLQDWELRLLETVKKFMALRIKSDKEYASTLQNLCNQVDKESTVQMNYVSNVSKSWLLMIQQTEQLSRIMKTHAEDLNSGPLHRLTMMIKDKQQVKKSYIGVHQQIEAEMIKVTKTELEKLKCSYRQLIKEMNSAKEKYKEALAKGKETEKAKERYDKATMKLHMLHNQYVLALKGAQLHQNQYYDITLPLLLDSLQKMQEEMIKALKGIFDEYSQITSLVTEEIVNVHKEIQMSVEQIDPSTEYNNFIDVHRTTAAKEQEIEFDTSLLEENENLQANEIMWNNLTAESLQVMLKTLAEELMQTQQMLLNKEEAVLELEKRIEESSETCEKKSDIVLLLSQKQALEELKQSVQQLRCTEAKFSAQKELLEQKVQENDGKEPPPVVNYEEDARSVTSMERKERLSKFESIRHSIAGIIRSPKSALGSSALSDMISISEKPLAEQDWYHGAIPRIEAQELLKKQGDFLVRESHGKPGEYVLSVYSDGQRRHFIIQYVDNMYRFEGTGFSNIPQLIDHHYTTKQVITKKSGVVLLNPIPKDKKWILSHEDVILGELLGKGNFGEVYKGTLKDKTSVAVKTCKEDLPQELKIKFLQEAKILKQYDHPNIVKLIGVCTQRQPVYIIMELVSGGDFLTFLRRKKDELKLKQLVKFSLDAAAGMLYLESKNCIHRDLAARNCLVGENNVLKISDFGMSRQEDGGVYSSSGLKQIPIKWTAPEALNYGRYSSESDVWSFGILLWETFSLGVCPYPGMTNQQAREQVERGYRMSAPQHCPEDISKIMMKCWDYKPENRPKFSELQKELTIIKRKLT
Chain of IRAK4 (human) (Q9NWZ3 whole entry, looked up): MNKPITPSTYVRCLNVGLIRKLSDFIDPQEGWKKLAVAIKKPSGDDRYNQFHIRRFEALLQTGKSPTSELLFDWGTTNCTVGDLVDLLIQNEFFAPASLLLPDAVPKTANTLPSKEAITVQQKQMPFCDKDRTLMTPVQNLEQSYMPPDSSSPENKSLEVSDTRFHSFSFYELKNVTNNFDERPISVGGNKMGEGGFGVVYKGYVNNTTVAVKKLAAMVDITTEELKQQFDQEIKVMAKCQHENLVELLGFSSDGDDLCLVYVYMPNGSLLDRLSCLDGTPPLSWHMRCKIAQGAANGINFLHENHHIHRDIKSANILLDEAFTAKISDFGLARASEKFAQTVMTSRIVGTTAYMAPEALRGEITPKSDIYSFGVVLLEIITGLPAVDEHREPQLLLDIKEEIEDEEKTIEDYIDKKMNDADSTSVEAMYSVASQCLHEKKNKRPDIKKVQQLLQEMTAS
Chain of NEK7 (human) (Q8TDX7 whole entry, looked up): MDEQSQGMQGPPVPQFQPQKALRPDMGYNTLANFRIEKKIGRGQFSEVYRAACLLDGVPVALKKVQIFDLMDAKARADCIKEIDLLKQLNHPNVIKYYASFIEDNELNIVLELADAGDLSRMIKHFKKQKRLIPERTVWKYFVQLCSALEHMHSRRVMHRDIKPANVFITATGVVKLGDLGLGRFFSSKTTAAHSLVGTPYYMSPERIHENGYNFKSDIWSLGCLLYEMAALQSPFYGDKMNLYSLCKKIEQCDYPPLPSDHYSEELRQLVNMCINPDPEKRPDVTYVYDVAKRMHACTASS
Chain of NLK (human) (Q9UBE8 whole entry, looked up): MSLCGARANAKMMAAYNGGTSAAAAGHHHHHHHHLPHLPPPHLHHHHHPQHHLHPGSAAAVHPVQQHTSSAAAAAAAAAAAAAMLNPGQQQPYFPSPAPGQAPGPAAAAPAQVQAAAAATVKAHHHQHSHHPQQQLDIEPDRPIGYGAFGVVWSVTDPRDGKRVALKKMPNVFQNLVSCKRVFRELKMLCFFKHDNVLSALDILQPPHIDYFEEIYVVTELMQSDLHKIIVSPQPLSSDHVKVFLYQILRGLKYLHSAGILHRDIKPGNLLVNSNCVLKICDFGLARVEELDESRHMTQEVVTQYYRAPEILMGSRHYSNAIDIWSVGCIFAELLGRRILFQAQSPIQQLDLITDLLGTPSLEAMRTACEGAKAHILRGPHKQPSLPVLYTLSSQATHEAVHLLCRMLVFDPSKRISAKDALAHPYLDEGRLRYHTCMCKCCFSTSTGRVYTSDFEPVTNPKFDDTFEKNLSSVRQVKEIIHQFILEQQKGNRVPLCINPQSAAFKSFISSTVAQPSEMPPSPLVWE
Chain of SRPK2 (human) (P78362 whole entry, looked up): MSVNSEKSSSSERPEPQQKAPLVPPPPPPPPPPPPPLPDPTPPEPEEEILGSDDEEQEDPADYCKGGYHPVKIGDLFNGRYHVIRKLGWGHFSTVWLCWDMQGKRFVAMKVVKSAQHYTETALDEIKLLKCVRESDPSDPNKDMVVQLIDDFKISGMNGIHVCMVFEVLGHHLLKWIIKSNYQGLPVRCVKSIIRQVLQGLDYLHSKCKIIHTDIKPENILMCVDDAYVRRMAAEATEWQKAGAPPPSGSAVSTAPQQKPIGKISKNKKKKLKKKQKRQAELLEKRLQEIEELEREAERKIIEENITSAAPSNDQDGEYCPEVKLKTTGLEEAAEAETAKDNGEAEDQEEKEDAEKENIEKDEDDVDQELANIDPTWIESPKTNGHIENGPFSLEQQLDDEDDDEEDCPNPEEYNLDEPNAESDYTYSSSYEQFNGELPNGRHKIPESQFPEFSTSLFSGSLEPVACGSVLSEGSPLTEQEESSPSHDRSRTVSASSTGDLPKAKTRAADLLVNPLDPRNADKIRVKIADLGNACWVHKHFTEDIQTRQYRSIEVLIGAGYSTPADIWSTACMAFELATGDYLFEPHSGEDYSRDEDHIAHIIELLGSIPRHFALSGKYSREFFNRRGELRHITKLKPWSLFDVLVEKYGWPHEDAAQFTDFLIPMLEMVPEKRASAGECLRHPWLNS
Chain of CDK7 CCNH MNAT1 (human) (P50613 whole entry, looked up): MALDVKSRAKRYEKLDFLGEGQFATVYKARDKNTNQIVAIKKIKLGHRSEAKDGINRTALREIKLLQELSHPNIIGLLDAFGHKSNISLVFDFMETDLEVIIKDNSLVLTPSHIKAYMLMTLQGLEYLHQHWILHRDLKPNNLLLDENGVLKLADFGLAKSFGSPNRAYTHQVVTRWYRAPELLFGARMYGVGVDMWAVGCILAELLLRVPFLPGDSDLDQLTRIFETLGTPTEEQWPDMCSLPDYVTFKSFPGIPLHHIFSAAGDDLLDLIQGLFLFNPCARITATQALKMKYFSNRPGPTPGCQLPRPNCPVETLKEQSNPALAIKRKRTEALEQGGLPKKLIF
Chain of CDK7 CCNH MNAT1 (human) (P51946 whole entry, looked up): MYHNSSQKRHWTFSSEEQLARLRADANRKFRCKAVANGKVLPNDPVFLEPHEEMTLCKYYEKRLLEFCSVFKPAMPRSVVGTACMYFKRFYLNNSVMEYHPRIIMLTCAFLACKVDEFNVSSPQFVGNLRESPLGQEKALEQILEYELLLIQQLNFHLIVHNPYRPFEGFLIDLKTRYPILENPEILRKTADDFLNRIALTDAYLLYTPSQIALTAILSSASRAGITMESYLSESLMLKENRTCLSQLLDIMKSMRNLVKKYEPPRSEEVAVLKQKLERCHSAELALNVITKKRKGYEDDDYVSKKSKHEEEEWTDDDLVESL
Chain of CDK7 CCNH MNAT1 (human) (P51948 whole entry, looked up): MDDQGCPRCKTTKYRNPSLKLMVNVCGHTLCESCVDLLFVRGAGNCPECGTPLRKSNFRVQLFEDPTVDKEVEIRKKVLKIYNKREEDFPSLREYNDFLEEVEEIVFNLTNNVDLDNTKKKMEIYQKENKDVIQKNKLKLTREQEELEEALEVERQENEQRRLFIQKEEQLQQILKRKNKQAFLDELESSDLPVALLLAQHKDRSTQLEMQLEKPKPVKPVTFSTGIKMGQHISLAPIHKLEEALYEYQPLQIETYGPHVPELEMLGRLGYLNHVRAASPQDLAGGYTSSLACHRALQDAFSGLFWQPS

`Oc1cccc(-c2nc(N3CCOCC3)c3oc4ncccc4c3n2)c1` gave a residual activity [1] of 97.3%, a residual activity [2] of 96.9% and a residual activity [3] of 101%. For the same compound, the residual activity [4] was 94.3%, the residual activity [5] was 96% and the residual activity [6] was 93.5%. For the same compound, the residual activity [7] was 86.8%, the residual activity [8] was 99.9% and the residual activity [9] was 110%. It also gave a residual activity [10] of 97.4%, a residual activity [11] of 107% and a residual activity [12] of 96.6%. The residual activity [13] was 94.8%, the residual activity [14] was 92.9% and the residual activity [15] was 96%. For the same compound, the residual activity [16] was 97.3%, the residual activity [17] was 104% and the residual activity [18] was 97.8%. The residual activity [19] was 99.2%, the residual activity [20] was 91.7% and the residual activity [21] was 77.1%. It also gave a residual activity [22] of 94.8%, a residual activity [23] of 92.8% and a residual activity [24] of 100%. The residual activity [25] was 105%, the residual activity [26] was 99.9% and the residual activity [27] was 96.1%. For the same compound, the residual activity [28] was 103%, the residual activity [29] was 93.1% and the residual activity [30] was 97.6%. The residual activity [31] was 84.2%, the residual activity [32] was 89.8% and the residual activity [33] was 101%. The residual activity [34] was 99%, the residual activity [35] was 105% and the residual activity [36] was 93.4%. The residual activity [37] was 98.6%, the residual activity [38] was 95.6% and the residual activity [39] was 104%. It also gave a residual activity [40] of 108%.

For `O=S(=O)(c1cccc2cnccc12)N1CCCNCC1`, the residual activity [1] was 83.9%, the residual activity [2] was 93.2% and the residual activity [3] was 99.4%. For the same compound, the residual activity [4] was 99.4%, the residual activity [5] was 86% and the residual activity [6] was 93.9%. For the same compound, the residual activity [7] was 97.3%, the residual activity [8] was 95.5% and the residual activity [9] was 100%. The residual activity [10] was 97.3%, the residual activity [11] was 105% and the residual activity [12] was 97.9%. It also gave a residual activity [13] of 90.5%, a residual activity [15] of 96.6% and a residual activity [41] of 90.3%. It also gave a residual activity [16] of 97.5%, a residual activity [17] of 108% and a residual activity [18] of 103%. The residual activity [19] was 101%, the residual activity [20] was 94.6% and the residual activity [21] was 97.4%. It also gave a residual activity [23] of 73.1%, a residual activity [24] of 70.2% and a residual activity [25] of 108%. For the same compound, the residual activity [26] was 102%, the residual activity [27] was 90.4% and the residual activity [28] was 90.6%. It also gave a residual activity [29] of 93%, a residual activity [30] of 97.9% and a residual activity [31] of 86.2%. The residual activity [32] was 89.7%, the residual activity [33] was 85.3% and the residual activity [34] was 94.1%. It also gave a residual activity [35] of 92.6%, a residual activity [36] of 99.3% and a residual activity [42] of 104%. The residual activity [37] was 90%, the residual activity [38] was 86.4% and the residual activity [39] was 111%. The residual activity [40] was 97.9%.

For `COc1ccc2c(c[n+](C)c3c4cc5c(cc4ccc23)OCO5)c1OC`, the residual activity [2] was 105%, the residual activity [3] was 81.4% and the residual activity [4] was 103%. It also gave a residual activity [5] of 95.6%, a residual activity [6] of 102% and a residual activity [7] of 96.1%. The residual activity [8] was 91.9%, the residual activity [9] was 88.4% and the residual activity [10] was 102%. It also gave a residual activity [11] of 96.6%, a residual activity [12] of 95.1% and a residual activity [13] of 91.3%. For the same compound, the residual activity [14] was 95.1%, the residual activity [15] was 97.5% and the residual activity [41] was 102%. The residual activity [16] was 98.9%, the residual activity [17] was 116% and the residual activity [18] was 89.8%. The residual activity [19] was 100%, the residual activity [20] was 96% and the residual activity [21] was 100%. It also gave a residual activity [22] of 97.5%, a residual activity [23] of 77.4% and a residual activity [24] of 84.2%. It also gave a residual activity [25] of 101%, a residual activity [26] of 97.4% and a residual activity [27] of 86.4%. It also gave a residual activity [28] of 92.3%, a residual activity [29] of 102% and a residual activity [30] of 94.5%. For the same compound, the residual activity [31] was 103%, the residual activity [32] was 89.8% and the residual activity [33] was 98.7%. The residual activity [34] was 103%, the residual activity [35] was 95.3% and the residual activity [36] was 100%. It also gave a residual activity [42] of 94.1%, a residual activity [37] of 89.4% and a residual activity [38] of 103%. The residual activity [39] was 88.5% and the residual activity [40] was 99%.

For `CC(C)N(CCC(=O)c1ccc2ccccc2c1)Cc1ccccc1`, the residual activity [1] was 99.1%, the residual activity [2] was 104% and the residual activity [3] was 104%. For the same compound, the residual activity [4] was 105%, the residual activity [5] was 99.5% and the residual activity [6] was 96.3%. It also gave a residual activity [7] of 87.8%, a residual activity [8] of 98% and a residual activity [9] of 88.9%. The residual activity [10] was 94.8%, the residual activity [11] was 106% and the residual activity [12] was 88.5%. For the same compound, the residual activity [13] was 94.2%, the residual activity [14] was 101% and the residual activity [15] was 101%. For the same compound, the residual activity [41] was 104%, the residual activity [16] was 95.2% and the residual activity [17] was 103%. For the same compound, the residual activity [18] was 105%, the residual activity [19] was 95.1% and the residual activity [20] was 99.5%. It also gave a residual activity [21] of 95.6%, a residual activity [22] of 96.4% and a residual activity [23] of 98.5%. It also gave a residual activity [24] of 96.6%, a residual activity [25] of 98.7% and a residual activity [27] of 84.9%. The residual activity [28] was 106%, the residual activity [29] was 107% and the residual activity [30] was 118%. For the same compound, the residual activity [31] was 102%, the residual activity [32] was 88% and the residual activity [33] was 106%. For the same compound, the residual activity [34] was 95.8%, the residual activity [35] was 103% and the residual activity [36] was 96.2%. For the same compound, the residual activity [42] was 94.4%, the residual activity [37] was 108% and the residual activity [38] was 96.8%. The residual activity [39] was 112% and the residual activity [40] was 98.6%.

With `CCCC(=O)Oc1ccc2[nH]c(C(=O)c3cc4ccccc4[nH]3)cc2c1` the residual activity [1] was 89.4%, the residual activity [2] was 101% and the residual activity [3] was 98.8%. The residual activity [5] was 104%, the residual activity [6] was 94.1% and the residual activity [7] was 86.7%. The residual activity [8] was 98.7%, the residual activity [9] was 101% and the residual activity [10] was 106%. It also gave a residual activity [11] of 101%, a residual activity [12] of 86% and a residual activity [13] of 88.4%. For the same compound, the residual activity [14] was 95.5%, the residual activity [15] was 93.8% and the residual activity [41] was 92.9%. The residual activity [16] was 95.5%, the residual activity [17] was 82.7% and the residual activity [18] was 101%. It also gave a residual activity [19] of 100%, a residual activity [20] of 96% and a residual activity [21] of 102%. For the same compound, the residual activity [22] was 94.5%, the residual activity [23] was 91% and the residual activity [24] was 95.5%. The residual activity [25] was 85.9%, the residual activity [26] was 99% and the residual activity [27] was 94.9%. For the same compound, the residual activity [28] was 87.6%, the residual activity [29] was 88.5% and the residual activity [30] was 91.8%. For the same compound, the residual activity [31] was 90.5%, the residual activity [32] was 84% and the residual activity [33] was 102%. For the same compound, the residual activity [34] was 101%, the residual activity [35] was 105% and the residual activity [36] was 93.7%. The residual activity [42] was 102%, the residual activity [37] was 94.8% and the residual activity [38] was 92.7%. It also gave a residual activity [39] of 104% and a residual activity [40] of 103%.
